From patent publication US5466712A, “Substituted n-aryl-1,2-diaminocyclobutene-3,4-diones” (American Home Products Corporation, priority 1994, dated 1995)

Tested on: Isolated Rat Bladder Strips
Assay: Inhibition of Contractions in Isolated Rat Bladder Strips (15 mM KCl-enhanced contractions)
Type: cell-based, Sprague-Dawley rats
Conditions: 0.5 h, 30 min challenge; for IC50: concentration eliciting 50% inhibition of pre-drug contractile activity; for inhibition at 30 µM: read-out: Inhibition of Force (%) at (x) μM
Text: Smooth muscle relaxing activity of the compounds of this invention was established in accordance with standard pharmaceutically accepted test procedures in representative compounds as follows:
Sprague-Dawley rats (150-200 g) are rendered unconscious by CO2 asphyxiation and then euthanized by cervical dislocation. The bladder is removed into warm (37 deg. C.) physiological salt solution (PSS) of the following composition (mM): NaCl, 118.4; KCl, 4.7; […]; NaHCO3, 24.9; KH2 PO4, 1.2; glucose, 11.1; EDTA, 0.023; gassed with […]; pH 7.4. The bladder is opened and then cut into strips 1-2 mm in width and 7-10 mm in length. The strips are subsequently suspended in a 10 mL tissue bath under an initial resting tension of 1.5 g. The strips are held in place by two surgical clips one of which is attached to fixed hook while the other is attached to an isometric force transducer. […] The carbachol is then washed out and the tissue allowed to relax to its resting level of activity. Following 1 further 30 min period of recovery an additional 15 mM KCl are introduced into the tissue bath. This increase in KCl concentration results in a large increase in the amplitude of spontaneous contractions (and initiation of contractions in previously quiescent strips) superimposed upon a small increase in basal tone. Following stabilization of this enhanced level of contractile activity, incremental increases in the concentration of test compound or vehicle are introduced into the tissue bath. Contractile activity is measured for each compound or vehicle concentration during the last […] of a 30 min challenge.
Isometric force developed by the bladder strips is measured using a […] to elicit 50% inhibition of pre-drug contractile activity (IC50 concentration) is calculated from this concentration-response curve. The maximum percentage inhibition of contractile activity evoked by a test compound is also recorded for concentrations of test compound<or equal to 30 μM.

IC50 [nM]	SMILES	inhibition at 30 µM [%]
56	C[C@@H](Nc1c(Nc2ccc(C#N)cc2)c(=O)c1=O)c1ccccc1 [Example 1, 4-[3,4-Dioxo-2-((R)-1-phenyl-ethylamino)-cyclobut-1-enylamino]-benzonitrile]	
2300	C[C@@H](Nc1c(Nc2ccncc2)c(=O)c1=O)c1ccccc1 [Example 4, 3-((R)-1-Phenyl-ethylamino)-4-(pyridin-4-ylamino)-cyclobut-3-ene-1,2-dione]	
	C[C@H](Nc1c(Nc2ccc(C#N)cc2)c(=O)c1=O)c1ccccc1 [Example 5, 4-[3.4-Dioxo-2-((S)-1-phenyl-ethylamino)-cyclobut-1-enylamino]-benzonitrile]	38
	CC(C)(Nc1c(Nc2ccc(C#N)cc2)c(=O)c1=O)c1ccccc1 [Example 9, 4-[3,4-Dioxo-2-(1-methyl-1-phenyl-ethylamino)-cyclobut-1-enylamino]-benzonitrile]	22
	CC[C@H](Nc1c(Nc2ccc(C#N)cc2)c(=O)c1=O)c1ccccc1 [Example 11, 4-[3,4-Dioxo-2-((S)-1-phenyl-propylamino)-cyclobut-1-enylamino]-benzonitrile]	28
